Measurements: US7314888B1, “Compounds and medicinal use thereof” (Toyama Chemical Co., Ltd., priority 1998, dated 2008)
Like-named read-outs stand apart in the source and are kept apart here. Bridge positions count the residues as written; N and C are the ends. Peptide text beside a SMILES is read from it.

Columns and labels:
[1] = tested on: transcription factor AP-1 (nuclear extract protein prepared from HeLa cells); assay: Activities on AP-1 binding reaction to recognition sequence (ELISA) using nuclear extract protein; settings: 100 μM; ELISA using nucleus-extracted protein
Experimental: (§1) Activities on AP-1 Binding Reaction to Recognition Sequence (ELISA)
Nuclear extract protein containing transcription factor AP-1 prepared from HeLa cells was coated on 96-well ELISA plate (100 ng/well) in Hepes buffer (20 mM Hepes-potassium hydroxide (pH 7.9), 0,5 mM ethylenediamine-tetraacetic acid, 50 mM potassium chloride, 10% glycerol). After washing, a blocking treatment was carried out with bovine serum albumin, and then used for a binding assay using nuclear extract protein.
(§2) On the basis of the above-mentioned two coated AP-1, a digoxigenin-labeled double stranded oligonucleotide (22-mer) containing an AP-1 binding sequence ([…]) which has been synthesized elsewhere was reacted in the presence and absence of a sample at room temperature for 30-60 minutes in a binding reaction solution [Hepes buffer or 25 mM tris-hydrochloric acid (pH 7.9), 0.5 mM ethylenediaminetetraacetic acid, 0.05% Nonidet P-40, 10% glycerol]. After of the reaction, unbound labeled oligonucleotide washed out with Hepes buffer solution containing 0.05% of Tween-20. Then, an anti-digoxigenin antibody labeled with peroxidase was added, and reacted with the labeled oligonucleotide bound to AP-1. After washing out the excessive antibody with Hepes buffer containing 0.05% of Tween-20, the residue was reacted for a predetermined period of time in a 100 mM citrate buffer (pH 5.0) containing hydrogen peroxide by using o-phenylenediamine as a substrate. After adding-sulfuric acid solution to each well, absorbance (492 nm) was measured. Taking the absorbance in the absence of sample as 100%, inhibition rate of sample was calculated from the absorbance in the presence of sample.

[2] = target: T1, AP-1 complex (Fos/Jun peptide) (Homo sapiens, UniProt P01100+P05412); assay: Activities on AP-1 binding reaction to recognition sequence (ELISA) using Fos/Jun peptide; settings: read-out: Inhibition rate %
T1 construct: made in house; host or cells: chemical peptide synthesis (no expression host)
T1 sequence (P01100 137-200 limits assumed): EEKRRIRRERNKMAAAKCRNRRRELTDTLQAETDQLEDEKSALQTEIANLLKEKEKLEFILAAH
T1 sequence (P05412 252-315 limits assumed): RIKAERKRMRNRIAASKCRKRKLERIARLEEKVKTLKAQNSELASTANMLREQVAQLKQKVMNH
Experimental: as §1
On the other hand, Jun peptide and N-terminal biotinylated tetraglycine Fos peptide containing a DNA-binding site [Nature, Vol. 373, Pages 257-261, 1995] were synthesized and separately dissolved in tris buffer (20 mM tris-hydrochloride (pH 7.5), 50 mM potassium chloride, 1 mM ethylenediaminetetraacetic acid, 10 mM magnesium chloride, 1 mM dithiothreitol, 0.5M guanidine hydrochloride, 30% glycerol). Equimolar quantities of both the solutions were mixed together, and the mixture was used as an AP-1 complex (Fos/Jun peptide). The AP-1 complex was added to avidin-coating 96-well ELISA plate (10 pmol/well), washed, and then blocked with bovine serum albumin. The product was used for binding assay using AP-1 complex.
as §2

[3] = tested on: type II collagen-induced arthritis; assay: Type II collagen-induced arthritis in mice; format: in vivo; settings: for inhibition at 100 mg/kg: Mus musculus, po, 100 mg/kg orally, 37th day
Experimental: Type II Collagen-Induced Arthritis in Mice The effect of the compound of Example 12 on the type II collagen-induced arthritis in mice was examined. As the animals, 8 weeks old male DBA/1J mice (Charles River Japan) were used. To 2 mg/mL solution of bovine type II collagen in 0.1 mol/L acetic acid (Kouken) was added an equivalent quantity of Freund complete adjuvant (Nacalai Tesque), and prepared an emulsion. 0.2 ml of the emulsion was subcutaneously injected into the tail root portion. On the 22nd day as counted from the day of first inoculation, the same treatment as above was repeated to induce arthritis. The compound was suspended in 0.5% methyl cellulose solution and administered orally at 100 mg/kg once every day from the 22nd day to the 36th day. To the control group (negative control group), a 0.5% methyl cellulose solution was administered similarly. Severity of the arthritis was evaluated in the following manner: score 0: no change score 1: swelling on one or two toes or slight swelling in the foreleg root or hindleg root only; score 2: swelling and rubor in more joints; score 3: extensive swelling over whole foreleg or hindleg; and total of the four legs was calculated. Taking the maximum score as 12, the arthritis score was calculated to evaluate the severity of arthritis. Regarding the destruction of joints and bones, X ray photographs of four paws were taken on the 37th day, and severity of destruction in the second to fifth articulationes interphalangeae, first to fifth articulationes metacarpophalangeae and metatarsophalangeae, and calcaneus was scored by 0 or 1 in accordance with presence or absence of destruction, and the severity of destruction in the carpus and tarsal was scored by 0 to 3. Total score for the four paws was taken as joint and bone destruction score, taking 50 points as maximum score.

CC(=O)NC1CSSCC(C(N)=O)NC(=O)CNC(=O)C(CC(=O)O)NC(=O)C(C)NC(=O)C(CC(C)C)NC(=O)C(CO)NC(=O)C(CC(C)C)NC(=O)C(CCC(N)=O)NC(=O)CNC1=O (stereo not drawn) [3(5), Ac-Cys^1-Gly-Gln-Leu-Ser-Leu-Ala-Asp-Gly-Cys^10-NH2 (Cys^1-Cys^10)] (Ac-CGQLSLADGC-NH2; disulfide 1-10; configuration not given here)
Inhibition rate [1]: 43%

CC(C)COc1ccc(C(=O)c2ccc(OCC(C)C)c(CCC(=O)O)c2)c(OCC(C)C)c1 [Example 12, 3-[5-(2,4-diisobutoxybenzoyl)-2-isobutoxyphenyl]propionic acid]
inhibition at 200 µM ([2]; 200 μM): 24%
inhibition at 500 µM ([2]; 500 μM): 90%
arthritis score ([3]; DBA/1J mice, 100 mg/kg orally once every day from 22nd to 36th day, 37th day from first inoculation, maximum score 12): 3
joint and bone destruction score ([3]; DBA/1J mice, 100 mg/kg orally once every day from 22nd to 36th day, X ray on 37th day, maximum score 50): 10
inhibition at 100 mg/kg ([3]; read-out: inhibition rate as compared with control group (arthritis score)): 63%
inhibition at 100 mg/kg ([3]; read-out: inhibition rate as compared with control group (joint and bone destruction score)): 62%

Ac-Asn-Cys^2-Gly-Asn-Leu-Leu-Ala-Leu-Gly-Ser-Cys^11-NH2 (Cys^2-Cys^11) (GNLLALGSC; not fully specified; Ac-Asn-Cys N-term, C-amide, disulfide; printed: Gly-Asn-Leu-Leu-Ala-Leu-Gly-Ser-Cys) [3(7)]
Inhibition rate [1]: 74%

Ac-Cys^1-Gly-Gln-Leu-Asp-Leu-Ala-Asp-Gly-Cys^10-NH2 (Cys^1-Cys^10) (GQLDLADGC; not fully specified; N-acetyl Cys, C-amide, Cys1-Cys10 disulfide; printed: Gly-Gln-Leu-Asp-Leu-Ala-Asp-Gly-Cys) [Example 2]
Inhibition rate [1]: 81%
